Test results published in ChEMBL document CHEMBL3399966, “Isosteric replacements of the carboxylic acid of drug candidate VX-787: Effect of charge on antiviral potency and kinase activity of azaindole-based influenza PB2 inhibitors” (Bioorg Med Chem Lett, 2015).

Assays:
[1] = target: Phosphatidylinositol 4,5-bisphosphate 3-kinase catalytic subunit alpha isoform (Homo sapiens, UniProt P42336); experiment: Inhibition of PI3Kalpha (unknown origin)
[2] = target: Tyrosine-protein kinase SYK (Homo sapiens, UniProt P43405); experiment: Inhibition of SYK (unknown origin)
[3] = target: T1, Phosphatidylinositol 4,5-bisphosphate 3-kinase catalytic subunit delta isoform (Homo sapiens, UniProt O00329); experiment: Inhibition of PI3Kdelta (unknown origin)
T1 sequence (O00329 whole entry): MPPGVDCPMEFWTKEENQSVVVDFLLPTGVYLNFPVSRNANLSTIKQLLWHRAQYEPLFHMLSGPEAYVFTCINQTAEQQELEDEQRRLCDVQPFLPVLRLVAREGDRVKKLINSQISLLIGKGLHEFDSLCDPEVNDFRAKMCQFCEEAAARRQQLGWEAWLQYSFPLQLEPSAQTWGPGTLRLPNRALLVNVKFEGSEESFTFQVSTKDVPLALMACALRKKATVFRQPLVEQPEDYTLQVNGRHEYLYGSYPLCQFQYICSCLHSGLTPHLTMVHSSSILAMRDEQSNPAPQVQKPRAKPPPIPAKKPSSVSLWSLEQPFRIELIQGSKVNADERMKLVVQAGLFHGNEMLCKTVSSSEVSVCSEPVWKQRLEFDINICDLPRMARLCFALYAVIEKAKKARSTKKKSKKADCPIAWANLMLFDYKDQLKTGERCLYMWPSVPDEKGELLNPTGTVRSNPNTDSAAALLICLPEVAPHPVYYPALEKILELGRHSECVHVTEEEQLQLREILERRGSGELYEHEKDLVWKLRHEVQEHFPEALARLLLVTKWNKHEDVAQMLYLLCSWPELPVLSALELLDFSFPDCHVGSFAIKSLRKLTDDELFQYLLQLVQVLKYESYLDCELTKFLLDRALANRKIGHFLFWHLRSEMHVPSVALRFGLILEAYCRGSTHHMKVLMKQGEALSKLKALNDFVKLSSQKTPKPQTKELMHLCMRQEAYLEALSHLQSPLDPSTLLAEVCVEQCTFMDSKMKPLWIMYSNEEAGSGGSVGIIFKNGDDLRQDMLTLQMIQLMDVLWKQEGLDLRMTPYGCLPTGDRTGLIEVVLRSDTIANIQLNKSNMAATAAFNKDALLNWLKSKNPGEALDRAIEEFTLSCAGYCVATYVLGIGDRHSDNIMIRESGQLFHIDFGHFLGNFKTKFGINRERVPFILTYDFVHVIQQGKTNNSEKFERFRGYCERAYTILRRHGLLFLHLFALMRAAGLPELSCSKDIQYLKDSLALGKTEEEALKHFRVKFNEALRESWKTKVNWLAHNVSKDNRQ

[4] = target: Hepatocyte growth factor receptor (Homo sapiens, UniProt P08581); experiment: Inhibition of MET (unknown origin)
Chain of Hepatocyte growth factor receptor (P08581 whole entry, canonical isoform): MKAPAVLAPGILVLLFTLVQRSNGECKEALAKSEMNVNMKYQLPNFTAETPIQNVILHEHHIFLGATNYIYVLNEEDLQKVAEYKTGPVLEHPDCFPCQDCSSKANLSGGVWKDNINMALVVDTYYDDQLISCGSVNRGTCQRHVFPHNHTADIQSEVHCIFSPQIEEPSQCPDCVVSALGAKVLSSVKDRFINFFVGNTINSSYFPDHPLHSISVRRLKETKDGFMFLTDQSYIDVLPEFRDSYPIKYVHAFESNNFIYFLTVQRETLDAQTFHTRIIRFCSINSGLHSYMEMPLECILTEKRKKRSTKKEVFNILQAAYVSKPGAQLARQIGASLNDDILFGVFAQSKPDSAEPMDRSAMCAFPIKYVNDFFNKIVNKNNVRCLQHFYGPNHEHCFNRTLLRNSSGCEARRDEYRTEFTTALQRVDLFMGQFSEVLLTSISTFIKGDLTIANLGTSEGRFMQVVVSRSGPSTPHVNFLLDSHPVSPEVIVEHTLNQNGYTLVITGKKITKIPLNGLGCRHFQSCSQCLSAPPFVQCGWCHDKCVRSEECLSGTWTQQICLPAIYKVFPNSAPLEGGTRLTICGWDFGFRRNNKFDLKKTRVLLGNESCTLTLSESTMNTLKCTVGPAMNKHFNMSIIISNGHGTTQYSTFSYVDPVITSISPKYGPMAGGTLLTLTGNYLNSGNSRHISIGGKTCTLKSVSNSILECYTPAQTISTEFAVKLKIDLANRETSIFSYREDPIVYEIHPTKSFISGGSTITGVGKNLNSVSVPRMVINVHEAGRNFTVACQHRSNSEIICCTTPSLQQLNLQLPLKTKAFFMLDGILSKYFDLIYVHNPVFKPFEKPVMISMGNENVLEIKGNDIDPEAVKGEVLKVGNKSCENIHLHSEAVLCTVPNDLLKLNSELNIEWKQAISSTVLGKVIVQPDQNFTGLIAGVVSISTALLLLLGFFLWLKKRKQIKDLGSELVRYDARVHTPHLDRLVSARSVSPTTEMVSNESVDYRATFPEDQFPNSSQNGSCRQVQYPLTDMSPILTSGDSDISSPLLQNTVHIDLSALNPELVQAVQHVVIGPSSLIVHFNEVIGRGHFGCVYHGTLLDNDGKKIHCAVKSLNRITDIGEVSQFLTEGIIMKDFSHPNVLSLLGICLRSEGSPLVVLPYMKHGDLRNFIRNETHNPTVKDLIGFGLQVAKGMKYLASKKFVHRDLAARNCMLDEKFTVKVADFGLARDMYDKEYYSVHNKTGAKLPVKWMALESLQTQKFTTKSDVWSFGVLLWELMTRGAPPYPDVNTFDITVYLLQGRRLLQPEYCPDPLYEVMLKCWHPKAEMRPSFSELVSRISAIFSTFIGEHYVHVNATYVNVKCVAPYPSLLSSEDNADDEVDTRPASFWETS

[5] = target: Phosphatidylinositol 4,5-bisphosphate 3-kinase catalytic subunit gamma isoform (Homo sapiens, UniProt P48736); experiment: Inhibition of PI3Kgamma (unknown origin)
Chain of Phosphatidylinositol 4,5-bisphosphate 3-kinase catalytic subunit gamma isoform (P48736 whole entry, canonical isoform): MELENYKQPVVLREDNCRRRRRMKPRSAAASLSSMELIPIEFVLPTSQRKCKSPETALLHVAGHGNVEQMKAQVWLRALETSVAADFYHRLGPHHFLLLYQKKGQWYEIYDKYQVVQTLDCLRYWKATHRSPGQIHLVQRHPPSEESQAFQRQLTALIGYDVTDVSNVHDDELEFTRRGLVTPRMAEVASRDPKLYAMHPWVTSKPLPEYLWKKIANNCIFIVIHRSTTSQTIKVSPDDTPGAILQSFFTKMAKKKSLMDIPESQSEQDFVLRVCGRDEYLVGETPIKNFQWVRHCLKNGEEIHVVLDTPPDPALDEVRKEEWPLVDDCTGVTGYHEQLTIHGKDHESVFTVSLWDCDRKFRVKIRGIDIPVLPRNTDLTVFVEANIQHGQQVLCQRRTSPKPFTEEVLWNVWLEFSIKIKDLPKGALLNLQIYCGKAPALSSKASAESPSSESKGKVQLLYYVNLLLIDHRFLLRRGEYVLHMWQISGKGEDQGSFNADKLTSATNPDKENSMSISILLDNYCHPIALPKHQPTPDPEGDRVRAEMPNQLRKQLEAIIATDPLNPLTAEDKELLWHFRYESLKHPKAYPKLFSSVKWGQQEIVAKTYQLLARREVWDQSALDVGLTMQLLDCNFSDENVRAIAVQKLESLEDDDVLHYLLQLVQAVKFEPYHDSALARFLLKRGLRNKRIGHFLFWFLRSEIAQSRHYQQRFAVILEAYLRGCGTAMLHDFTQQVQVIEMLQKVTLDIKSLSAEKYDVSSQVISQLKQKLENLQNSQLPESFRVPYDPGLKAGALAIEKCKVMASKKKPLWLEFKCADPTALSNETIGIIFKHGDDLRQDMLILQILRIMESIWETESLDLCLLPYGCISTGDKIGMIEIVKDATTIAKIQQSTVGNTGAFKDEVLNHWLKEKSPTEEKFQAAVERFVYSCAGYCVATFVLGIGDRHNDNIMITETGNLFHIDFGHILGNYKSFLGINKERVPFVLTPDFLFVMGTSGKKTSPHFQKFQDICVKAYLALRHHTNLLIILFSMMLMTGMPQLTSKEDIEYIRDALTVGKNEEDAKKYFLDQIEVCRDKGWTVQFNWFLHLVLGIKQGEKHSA

[6] = target: T2, Interleukin-1 receptor-associated kinase 4 (Homo sapiens, UniProt Q9NWZ3); experiment: Inhibition of IRAK4 (unknown origin)
T2 sequence (Q9NWZ3 whole entry): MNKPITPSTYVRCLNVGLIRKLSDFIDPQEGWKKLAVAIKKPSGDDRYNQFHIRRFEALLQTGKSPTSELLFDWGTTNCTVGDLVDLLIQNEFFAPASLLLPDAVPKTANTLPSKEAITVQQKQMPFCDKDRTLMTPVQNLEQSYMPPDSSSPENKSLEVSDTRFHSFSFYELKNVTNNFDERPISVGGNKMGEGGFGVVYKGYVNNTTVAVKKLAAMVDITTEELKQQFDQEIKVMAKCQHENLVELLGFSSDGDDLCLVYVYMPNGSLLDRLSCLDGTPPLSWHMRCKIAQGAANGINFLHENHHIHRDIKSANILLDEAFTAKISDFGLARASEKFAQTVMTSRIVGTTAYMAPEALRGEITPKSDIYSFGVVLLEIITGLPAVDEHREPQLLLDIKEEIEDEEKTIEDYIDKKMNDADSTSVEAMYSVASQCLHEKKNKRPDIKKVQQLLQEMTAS

[7] = target: Mitogen-activated protein kinase 10 (Homo sapiens, UniProt P53779); experiment: Inhibition of JNK3 (unknown origin)
[8] = target: Tyrosine-protein kinase JAK2 (Homo sapiens, UniProt O60674); experiment: Inhibition of JAK2 (unknown origin)
Chain of Tyrosine-protein kinase JAK2 (O60674 whole entry): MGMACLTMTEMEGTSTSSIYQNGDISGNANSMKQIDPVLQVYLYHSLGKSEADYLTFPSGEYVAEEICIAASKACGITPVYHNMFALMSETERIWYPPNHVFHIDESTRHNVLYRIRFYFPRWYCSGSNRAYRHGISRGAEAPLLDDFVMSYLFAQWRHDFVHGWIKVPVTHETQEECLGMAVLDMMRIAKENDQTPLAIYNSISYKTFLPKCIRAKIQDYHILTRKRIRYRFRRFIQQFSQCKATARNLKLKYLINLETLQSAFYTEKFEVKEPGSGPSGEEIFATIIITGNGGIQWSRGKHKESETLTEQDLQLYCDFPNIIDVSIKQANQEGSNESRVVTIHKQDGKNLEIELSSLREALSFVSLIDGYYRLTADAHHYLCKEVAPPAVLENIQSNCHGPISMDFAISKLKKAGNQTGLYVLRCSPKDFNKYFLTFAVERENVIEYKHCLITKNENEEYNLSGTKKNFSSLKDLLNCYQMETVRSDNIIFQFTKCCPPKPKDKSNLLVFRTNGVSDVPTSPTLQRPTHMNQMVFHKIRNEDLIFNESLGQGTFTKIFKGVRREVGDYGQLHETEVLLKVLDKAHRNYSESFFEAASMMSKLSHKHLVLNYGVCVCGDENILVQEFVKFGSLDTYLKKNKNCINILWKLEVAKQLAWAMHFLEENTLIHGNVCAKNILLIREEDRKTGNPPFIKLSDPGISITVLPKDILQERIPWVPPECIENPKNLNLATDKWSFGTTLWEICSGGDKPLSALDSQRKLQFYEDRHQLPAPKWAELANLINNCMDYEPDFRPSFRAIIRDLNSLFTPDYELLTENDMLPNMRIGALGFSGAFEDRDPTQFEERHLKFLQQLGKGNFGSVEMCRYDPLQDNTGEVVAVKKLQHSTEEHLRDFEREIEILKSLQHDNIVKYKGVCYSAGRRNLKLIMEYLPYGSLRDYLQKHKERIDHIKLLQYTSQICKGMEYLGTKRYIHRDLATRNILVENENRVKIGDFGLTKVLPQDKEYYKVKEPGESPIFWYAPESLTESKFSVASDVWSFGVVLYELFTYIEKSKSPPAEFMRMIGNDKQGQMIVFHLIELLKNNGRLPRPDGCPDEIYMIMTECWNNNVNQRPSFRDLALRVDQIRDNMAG

[9] = target: Serine/threonine-protein kinase PLK1 (Homo sapiens, UniProt P53350); experiment: Inhibition of PLK (unknown origin)
Influenza A virus [10] = experiment: Antiviral activity against influenza A virus A/PR/8/34 strain incubated with MDCK cells assessed as reduction of viral RNA level equal to 1% of control level after 72 hrs by branched DNA assay; assay type: functional, organism-based; settings: A/Puerto Rico/8/1934(H1N1)
[11] = target: Proto-oncogene tyrosine-protein kinase Src (Homo sapiens, UniProt P12931); experiment: Inhibition of SRC (unknown origin)
[12] = target: Cyclin-dependent kinase 2 (Homo sapiens, UniProt P24941); experiment: Inhibition of CDK2 (unknown origin)
[13] = target: cAMP-dependent protein kinase catalytic subunit alpha (Homo sapiens, UniProt P17612); experiment: Inhibition of PKAa (unknown origin)
[14] = target: Glycogen synthase kinase-3 (Homo sapiens, UniProt P49840+P49841); experiment: Inhibition of GSK3 (unknown origin); assay type: protein assay
Influenza A virus [15] = experiment: Antiviral activity against Influenza A virus A/PR/8/34 strain incubated with MDCK cells assessed as cell protection after 72 hrs by phenotypic cell protection assay; assay type: functional, organism-based; settings: A/Puerto Rico/8/1934(H1N1)
[16] = target: T3, Receptor-type tyrosine-protein kinase FLT3 (Homo sapiens, UniProt P36888); experiment: Inhibition of FLT3 (unknown origin)
T3 sequence (P36888 whole entry): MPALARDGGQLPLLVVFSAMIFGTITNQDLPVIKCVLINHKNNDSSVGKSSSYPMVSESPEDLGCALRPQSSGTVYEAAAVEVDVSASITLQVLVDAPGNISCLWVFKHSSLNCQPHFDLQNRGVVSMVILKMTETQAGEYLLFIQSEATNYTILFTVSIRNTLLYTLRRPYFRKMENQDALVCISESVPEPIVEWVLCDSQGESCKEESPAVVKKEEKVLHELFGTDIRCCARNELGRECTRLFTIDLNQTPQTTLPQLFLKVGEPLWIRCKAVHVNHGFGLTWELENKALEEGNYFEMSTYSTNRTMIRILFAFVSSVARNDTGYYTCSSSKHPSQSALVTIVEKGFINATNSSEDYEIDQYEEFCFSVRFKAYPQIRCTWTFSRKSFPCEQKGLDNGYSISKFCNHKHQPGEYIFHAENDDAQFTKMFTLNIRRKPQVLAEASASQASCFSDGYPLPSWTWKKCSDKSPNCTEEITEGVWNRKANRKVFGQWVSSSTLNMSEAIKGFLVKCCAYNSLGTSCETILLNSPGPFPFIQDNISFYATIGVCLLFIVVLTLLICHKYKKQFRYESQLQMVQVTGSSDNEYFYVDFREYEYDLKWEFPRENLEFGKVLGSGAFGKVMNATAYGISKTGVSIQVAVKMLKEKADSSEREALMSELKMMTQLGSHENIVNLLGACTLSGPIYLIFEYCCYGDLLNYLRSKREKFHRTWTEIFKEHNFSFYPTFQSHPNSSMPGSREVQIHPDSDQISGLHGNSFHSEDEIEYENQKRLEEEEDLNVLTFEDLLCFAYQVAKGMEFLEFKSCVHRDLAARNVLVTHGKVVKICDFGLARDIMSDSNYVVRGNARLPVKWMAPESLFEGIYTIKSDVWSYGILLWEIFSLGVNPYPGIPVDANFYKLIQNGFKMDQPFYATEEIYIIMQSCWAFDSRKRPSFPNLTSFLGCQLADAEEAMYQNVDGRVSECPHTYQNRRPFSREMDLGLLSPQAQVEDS

[17] = target: Rho-associated protein kinase (Homo sapiens, UniProt O75116+Q13464); experiment: Inhibition of ROCK (unknown origin); assay type: protein-complex assay
[18] = target: Vascular endothelial growth factor receptor 2 (Homo sapiens, UniProt P35968); experiment: Inhibition of KDR (unknown origin)
[19] = target: Phosphatidylinositol 4,5-bisphosphate 3-kinase catalytic subunit beta isoform (Homo sapiens, UniProt P42338); experiment: Inhibition of PI3Kbeta (unknown origin)
Chain of Phosphatidylinositol 4,5-bisphosphate 3-kinase catalytic subunit beta isoform (P42338 whole entry, canonical isoform): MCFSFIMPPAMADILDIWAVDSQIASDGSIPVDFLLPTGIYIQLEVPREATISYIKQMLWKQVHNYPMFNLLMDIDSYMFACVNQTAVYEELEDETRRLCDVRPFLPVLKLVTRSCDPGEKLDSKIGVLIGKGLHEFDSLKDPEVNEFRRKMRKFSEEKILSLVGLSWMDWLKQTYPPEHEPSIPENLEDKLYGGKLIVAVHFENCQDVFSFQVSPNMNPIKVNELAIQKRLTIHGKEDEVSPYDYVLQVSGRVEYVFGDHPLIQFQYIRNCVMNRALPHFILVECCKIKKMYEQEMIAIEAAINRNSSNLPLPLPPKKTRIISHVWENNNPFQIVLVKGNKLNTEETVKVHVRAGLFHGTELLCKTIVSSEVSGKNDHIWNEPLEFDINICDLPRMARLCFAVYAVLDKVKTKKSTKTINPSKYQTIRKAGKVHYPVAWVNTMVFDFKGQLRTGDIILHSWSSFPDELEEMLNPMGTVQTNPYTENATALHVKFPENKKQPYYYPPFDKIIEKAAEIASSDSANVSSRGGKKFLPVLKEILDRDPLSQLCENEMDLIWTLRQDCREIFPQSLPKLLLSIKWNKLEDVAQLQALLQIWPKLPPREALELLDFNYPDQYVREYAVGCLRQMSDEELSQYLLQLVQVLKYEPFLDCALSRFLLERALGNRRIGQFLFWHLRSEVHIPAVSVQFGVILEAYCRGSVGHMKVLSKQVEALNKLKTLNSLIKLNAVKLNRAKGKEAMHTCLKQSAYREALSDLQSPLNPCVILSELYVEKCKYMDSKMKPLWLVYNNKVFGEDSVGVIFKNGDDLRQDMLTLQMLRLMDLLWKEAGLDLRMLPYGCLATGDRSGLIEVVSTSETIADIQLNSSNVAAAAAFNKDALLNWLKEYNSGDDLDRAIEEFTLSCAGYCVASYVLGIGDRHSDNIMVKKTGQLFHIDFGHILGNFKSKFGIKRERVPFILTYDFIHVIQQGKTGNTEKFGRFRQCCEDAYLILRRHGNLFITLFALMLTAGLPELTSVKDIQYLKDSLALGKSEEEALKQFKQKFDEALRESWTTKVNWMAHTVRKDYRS

Row | SMILES | Ki [1] [µM] | Ki [2] [µM] | Ki [3] [µM] | Ki [4] [µM] | Ki [5] [µM] | Ki [6] [µM] | Ki [7] [µM] | Ki [8] [µM] | Ki [9] [µM] | EC50 (Influenza A virus [10]) [µM] | EC99 (Influenza A virus [10]) [µM] | Ki [11] [µM] | Ki [12] [µM] | Ki [13] [µM] | Ki [14] [µM] | IC50 (Influenza A virus [15]) [µM] | Ki [16] [µM] | Ki [17] [µM] | Ki [18] [µM] | Ki [19] [µM]
1 | Cc1nnc([C@H]2C3CCC(CC3)[C@@H]2Nc2nc(-c3c[nH]c4ncc(F)cc34)ncc2F)o1 (mixture of isomers) | > 4 | > 4 | 1.2 | > 4 | 2.8 | > 4 | > 4 | > 4 | > 4 | 0.17 | 1.9 | > 4 | > 4 | > 4 | 1.1 | 0.13 | 1.8 | > 4 | > 4 | > 4
2 | CS(=O)(=O)[C@H]1C2CCC(CC2)[C@@H]1Nc1nc(-c2c[nH]c3ncc(F)cc23)ncc1F (mixture of isomers) | > 4 | > 4 | 3.3 | > 4 | 1.2 | > 4 | > 4 | 0.74 | > 4 | 0.002 | 2.2 | 3.1 | > 4 | 1.5 | 0.077 | 0.23 | 0.84 | 2.7 | 1.5 | > 4
3 | Cc1noc([C@H]2C3CCC(CC3)[C@@H]2Nc2nc(-c3c[nH]c4ncc(F)cc34)ncc2F)n1 (mixture of isomers) | > 4 | > 4 | 2.5 | > 4 | 1.4 | > 4 | > 4 | > 4 | > 4 | 0.12 | 1.2 | 2.4 | > 4 | 1.1 | 0.98 | 0.21 | 0.97 | > 4 | > 4 | 2.3
4 | O=C(O)[C@H]1C2CCC(CC2)[C@@H]1Nc1nc(-c2c[nH]c3ncc(F)cc23)ncc1F [PIMODIVIR] |  |  |  |  |  |  |  | > 4 |  | 0.002 | 0.011 |  |  |  | 1.6 | 0.002 | > 4 |  |  | 
5 | CC(=O)NS(=O)(=O)[C@H]1C2CCC(CC2)[C@@H]1Nc1nc(-c2c[nH]c3ncc(F)cc23)ncc1F (mixture of isomers) | > 4 | > 4 | > 4 | > 4 | 1.5 | > 4 | > 4 | > 4 | > 4 | 0.009 | 0.16 | > 4 | > 4 | > 4 | 0.31 | 0.019 | 2.8 | > 4 | > 4 | > 4
6 | O=c1nc([C@H]2C3CCC(CC3)[C@@H]2Nc2nc(-c3c[nH]c4ncc(F)cc34)ncc2F)[nH]o1 (mixture of isomers) | > 4 | > 4 | > 4 | > 4 | > 4 | > 4 | > 4 | > 4 | > 4 | 0.029 | 0.14 | > 4 | > 4 | > 4 | > 4 |  | > 4 | > 4 | > 4 | > 4
7 | CNC(=O)[C@H]1C2CCC(CC2)[C@@H]1Nc1nc(-c2c[nH]c3ncc(F)cc23)ncc1F (mixture of isomers) | > 4 | > 4 | > 4 | > 4 | > 4 | > 4 | > 4 | 1.1 | > 4 | 0.035 | 0.31 | 2.5 | > 4 | > 4 | 0.23 | 0.014 | 1.4 | > 4 | > 4 | > 4
8 | NS(=O)(=O)[C@H]1C2CCC(CC2)[C@@H]1Nc1nc(-c2c[nH]c3ncc(F)cc23)ncc1F (mixture of isomers) | > 4 | > 4 | 1.9 | > 4 | 1.1 | > 4 | > 4 | 0.84 | 2.1 | 0.006 | 0.064 | 3.1 | > 4 | 0.49 | 0.085 | 0.006 | 1.2 | 0.98 | 1.9 | > 4
